Values quoted from earlier work in patent US20060115424A1, “Combination therapy of oxaliplatin and radioactively doped particles treating cancer” (priority 2003, published 2006).

Test system: cancer
Conditions: Gray et al (2001) Annals of Oncology 12: 1711-1720

O=c1[nH]c(=O)n([C@H]2C[C@H](O)[C@@H](CO)O2)cc1F [floxuridine]
response rate: 17.6%
time to disease progression: 9.7 months
